Reference: patent US6706740B2, “Fungicidal heterocyclic aromatic amides and their compositions, methods of use and preparation” (Dow AgroSciences LLC, priority 1999, dated 2004)
Read-outs that look alike come from different tables or passages of the source.

Assays:
[1] = tested on: Phytophthora infestans—PHYTIN; experiment: whole plant or invertebrate; assay type: in vivo; details: Phytophthora, in Solanum lycopersicum, 24 h, read-out: PHYTIN in vivo 1 Day Protectant
[2] = tested on: Puccinia recondita—PUCCRT; experiment: Brown Rust of Wheat, in vivo whole plant, 24 Hour Protectant; details: for pest or weed control at 100 ppm: Puccinia, control of fungal infection vs untreated plants, read-out: PUCCRT in vivo 1 Day Protectant; for PUCCRT in vivo 1 Day Protectant: % control of fungal infection vs untreated plants
Septoria tritici—SEPTTR = experiment: Leaf Blotch of Wheat, in vivo whole plant, 24 Hour Protectant; details: for pest or weed control at 100 ppm: Zymoseptoria tritici, 24 h, control of fungal infection vs untreated plants, read-out: SEPTTR in vivo 1 Day Protectant; for SEPTTR in vivo 1 Day Protectant: % control of fungal infection vs untreated plants
[3] = tested on: Mycosphaerella graminicola (Septoria tritici—SEPTTR); experiment: In vitro fungal growth inhibition, Mycosphaerella graminicola (SEPTTR); assay type: cell-based; details: Zymoseptoria tritici, read-out: SEPTTR in vitro Growth Inhibition
Ustilago maydis (USTIMA) = experiment: microbe, parasite or virus in culture; assay type: cell-based; details: Mycosarcoma maydis, read-out: USTIMA in vitro Growth Inhibition
[4] = tested on: Leptosphaeria nodorum—LEPTNO; experiment: Glume Blotch of Wheat, in vivo whole plant, 24 Hour Protectant; details: for pest or weed control at 100 ppm: Leptosphaeria, control of fungal infection vs untreated plants, read-out: LEPTNO in vivo 1 Day Protectant; for LEPTNO in vivo 1 Day Protectant: % control of fungal infection vs untreated plants
Erysiphe graminis—ERYSGT = experiment: Powdery Mildew of Wheat, in vivo whole plant, 24 Hour Protectant; details: Erysiphe, read-out: ERYSGT in vivo 1 Day Protectant
[5] = tested on: Rhizoctonia solani (RHIZSO); experiment: microbe, parasite or virus in culture; assay type: cell-based; details: Rhizoctonia solani, read-out: RHIZSO in vitro Growth Inhibition
[6] = tested on: Phytophthora infestans (PHYTIN); experiment: microbe, parasite or virus in culture; assay type: cell-based; details: Phytophthora infestans, read-out: PHYTIN in vitro Growth Inhibition
[7] = tested on: Magnaporthe grisea (Pyricularia oryzae—PYRIOR); experiment: microbe, parasite or virus in culture; assay type: cell-based; details: Pyricularia oryzae, read-out: PYRIOR in vitro Growth Inhibition
[8] = tested on: Stagonospora nodorum (Leptosphaeria nodorum—LEPTNO); experiment: In vitro fungal growth inhibition, Stagonospora nodorum (LEPTNO); assay type: cell-based; details: Leptosphaeria, read-out: LEPTNO in vitro Growth Inhibition
[9] = wheat plants sprayed at 100 ppm, inoculated after 24 hours
[10] = wheat plants sprayed at 100 ppm, inoculated after 24 hours, control of fungal infection vs untreated plants
[11] = 100 ppm spray, wheat, 24 hour protectant
[12] = 100 ppm spray, wheat, 24 hour protectant, % control of fungal infection vs untreated plants
[13] = 100 ppm spray, 24 hour protectant, wheat

Structure (SMILES) | pest or weed control at 100 ppm [1] | pest or weed control at 100 ppm [2, 9] | pest or weed control at 100 ppm (Septoria tritici—SEPTTR; [9]) | inhibition at 25 ppm ([3]; 25 ppm in the growth medium) | inhibition at 25 ppm (Ustilago maydis (USTIMA)) | pest or weed control at 100 ppm [4, 9] | pest or weed control at 100 ppm (Erysiphe graminis—ERYSGT; [10]) | inhibition at 25 ppm [5] | inhibition at 25 ppm [6] | inhibition at 25 ppm [7] | inhibition at 25 ppm ([8]; 25 ppm in the growth medium) | inhibition at 25 ppm ([3]; 25 ppm in growth medium) | inhibition at 25 ppm ([8]; 25 ppm in growth medium) | other results
CCCCCc1ccc(C(C)NC(=O)c2nc(Br)ccc2O)cc1 (stereo not shown) [Compound 489] | < 25% | 25 to 74% | < 25% | < 80% | < 80% | < 25% | < 25% | < 80% | < 80% | < 80% | < 80% | – | – | –
O=C(Nc1ccc(Oc2cccc(C(F)(F)F)c2)cc1)c1cscc1O [Compound 555] | < 25% | < 25% | 25 to 74% | > 80% | < 80% | 25 to 74% | < 25% | > 80% | > 80% | > 80% | > 80% | – | – | –
COc1ccnc(C(=O)N[C@H]2COC(=O)[C@H](Cc3ccccc3)[C@@H](OC(=O)C(C)C)[C@H](C)OC2=O)c1OC(=O)C1CCCCC1 [Compound 612] | < 25% | – | – | – | < 80% | – | – | < 80% | < 80% | < 80% | – | < 80% | > 80% | PUCCRT in vivo 1 Day Protectant [2, 11]: + +; SEPTTR in vivo 1 Day Protectant (Septoria tritici—SEPTTR; [11]): + +; LEPTNO in vivo 1 Day Protectant [4, 11]: + +; pest or weed control at 100 ppm (Erysiphe graminis—ERYSGT; [12]): < 25%
COc1ccnc(C(=O)Nc2ccc(/C(=N/O)c3cccc(C(F)(F)F)c3)cc2)c1O [Compound 407] | < 25% | – | – | – | < 80% | – | – | < 80% | < 80% | < 80% | – | > 80% | < 80% | pest or weed control at 100 ppm [2, 11]: < 25%; pest or weed control at 100 ppm (Septoria tritici—SEPTTR; [11]): 25 to 74%; pest or weed control at 100 ppm [4, 11]: 25 to 74%; pest or weed control at 100 ppm (Erysiphe graminis—ERYSGT; 100 ppm spray, wheat, 24 hour protectant, control of fungal infection vs untreated plants): < 25%
COc1ccnc(C(=O)Nc2cccc(Sc3ccc(C(F)(F)F)cc3)c2)c1OC(C)=O [Compound 710] | < 25% | – | – | – | < 80% | – | – | < 80% | < 80% | > 80% | – | > 80% | > 80% | PUCCRT in vivo 1 Day Protectant [2, 11]: + +; SEPTTR in vivo 1 Day Protectant (Septoria tritici—SEPTTR; [11]): + +; LEPTNO in vivo 1 Day Protectant [4, 11]: + +; pest or weed control at 100 ppm (Erysiphe graminis—ERYSGT; [12]): < 25%
COc1ccnc(C(=O)NC2CC(C)(C)C(OC)C(C)(C)C2)c1O (stereo not shown) [Compound 265] | < 25% | – | – | – | < 80% | – | – | < 80% | < 80% | < 80% | – | < 80% | < 80% | pest or weed control at 100 ppm [2, 13]: < 25%; pest or weed control at 100 ppm (Septoria tritici—SEPTTR; [13]): 25 to 74%; pest or weed control at 100 ppm [4, 13]: 25 to 74%; pest or weed control at 100 ppm (Erysiphe graminis—ERYSGT; 100 ppm spray, 24 hour protectant, wheat, control of fungal infection vs untreated plants): 25 to 74%
COc1ccc(O)c(C(=O)NC2COC(=O)[C@H](Cc3ccccc3)[C@@H](OC(=O)C(C)C)[C@H](C)OC2=O)n1 (stereo partly shown) [Compound 481] | < 25% | < 25% | 25 to 74% | < 80% | < 80% | 25 to 74% | < 25% | < 80% | < 80% | < 80% | < 80% | – | – | –
COc1ccnc(C(=O)NC(COC(=O)C(Cc2ccccc2)C(C)OC(=O)C(C)C)C(=O)OC(C)C)c1OC(C)=O (stereo not shown) [Compound 589] | < 25% | 25 to 74% | 25 to 74% | < 80% | < 80% | < 25% | < 25% | < 80% | < 80% | < 80% | < 80% | – | – | –
